The values below come from paper PMC12175177 (Frontiers in Pharmacology, 2025).

For the assay, the system named is SARS-CoV-2 A2.5 variant. In words: Pre- and post-exposure assay, A2.5 variant in Vero E6 cells. The format is cell-based.

On to `CCN(CC)CCCC(C)Nc1ccnc2cc(Cl)ccc12` (stereo not shown) [Chloroquine diphosphate (CQ), Chloroquine diphosphate], for which the “antiviral effect, treatment 1 hour post-infection, A2.5” value was “dose-dependent antiviral effect” and the “effect on viral replication, treatment 1 hour pre-infection, A2.5” value is “did not influence the viral replication”.
The corresponding values for `COc1cc(NC(C)CCCN)c2ncccc2c1` (stereo not shown) [Primaquine Phosphate (PQ), Primaquine Phosphate] are “dose-dependent antiviral effect” and “did not influence the viral replication”.
